For assay [1], the system named is allergic rhinitis model in mice. Briefly: Allergic rhinitis model in mice (OVA). As to conditions: nasal drops twice a day, 7-day treatment; MDI-1233 10 mg/kg, MDI-1228 3 mg/kg, MDI-1288 3 mg/kg; fluticasone propionate positive control. The class given is in vivo, BALB/C mice. As for the experimental part: 42-49 day-old BALB/C mice (Manufacturer: Liaoning Changsheng Biotechnology Co., Ltd., License Number: SCXK(therapeutic)2015-0001), both male and female, were reared under conventional diet, at a temperature of 20 to 26° C., and a humidity of 40% to 70%. Animal grouping and modeling: • 1. Blank control group (no treatment) • 2. Allergic rhinitis group (vehicle treatment: saline containing 0.2% Tween 80) • 3. Allergic rhinitis+compound MDI-1233: 1 mg/kg • 4. Allergic rhinitis+compound MDI-1233: 3 mg/kg • 5. Allergic rhinitis+compound MDI-1233: 10 mg/kg • 6. Allergic rhinitis+compound MDI-1228: 3 mg/kg • 7. Allergic rhinitis+compound MDI-1288: 3 mg/kg • 8. Allergic rhinitis+positive control group (Fluticasone propionate, GlaxoSmithKline, E88D
The preparation of an AR model in mice involved sensitizing and challenging BALB/c mice with ovalbumin (OVA) to simulate an acute symptoms caused by natural exposure to an allergen. The experimental animals were weighed and separated by gender. Sensitization was performed on days 1, 5, 9, and 12. From day 13, a daily challenge was carried out for 7 consecutive days. After the last challenge, behavior of the mice was observed and scored. The sensitization method involved intraperitoneal injection of an OVA (Sigma, A5503-1G) suspension in 50 μg/ml in which the OVA suspension was prepared by dissolving 500 μg of ovalbumin and 50 mg of AL(OH)3 (CAS 21645-51-2) into 10 ml of normal saline, pH 7.4, with 200 μl injected per mouse. […] On day 12, a single nasal challenge with 10% OVA was performed (PBS was used for the control group). Scoring was conducted according to the table below, using a superposition method to calculate the total score. A total score greater than 5 was considered as successful. Subsequent experiments were conducted after the modeling was deemed successful.
From day 13, compound administration and challenge were conducted. The compound administration method involved calculating the nasal drops volume according to the mouse's body weight and group requirements, and dissolving the compounds MDI-1233, MDI-1228, MDI-1288 into normal saline containing 0.2% Tween 80 at specific concentrations. The administration was given 30 minutes before the challenge, twice a day. The positive control treatment involved administering nasal drop once (10 μl per side) 30 minutes before OVA nasal stimulation, twice a day. Thirty minutes after the second drug administration, a 10% OVA challenge was conducted, and the amount of nasal discharge, sneezing, and nose scratching were observed and recorded within 30 minutes after each challenge and then scored. The control group was treated with normal saline nasal drops.
After the rhinitis modeling was completed and the scores were stable, mice of each group were anesthetized and sacrificed after a 20-day scoring. Samples were collected, and peripheral serum was obtained by collecting whole blood, and standing it at room temperature for 1 hour and then centrifuging it to collect the supernatant for ELISA detection; nasal mucosa was taken for HE staining (fixed with 10% formalin); and the supernatant of nasal lavage fluid was taken for ELISA detection.
(1) HE Staining: The tissue was rinsed with running water for several hours, dehydrated through a series of ethanol solutions (70%, 80%, 90%), and then treated with a mixture of pure alcohol and xylene for 15 minutes, followed by xylene I for 15 minutes and xylene I1 for 15 minutes (until transparent). The tissue was then placed in a mixture of xylene and paraffin at a volume ratio of 1:1 for 15 minutes, followed by immersion with paraffin I and paraffin II each for 50-60 minutes. The tissue was embedded in paraffin and sectioned, and the sections were spreaded, dried, dewaxed and hydrated in distilled water. […]

In another assay the target is TRKB (Homo sapiens (Human), UniProt Q16620). Briefly: Inhibitory activity on TRKB (ADP-Glo Kinase Assay). (ADP-Glo first removes unused ATP, then detects ADP through luciferase.)
Sequence of TRKB (Q16620 32-822): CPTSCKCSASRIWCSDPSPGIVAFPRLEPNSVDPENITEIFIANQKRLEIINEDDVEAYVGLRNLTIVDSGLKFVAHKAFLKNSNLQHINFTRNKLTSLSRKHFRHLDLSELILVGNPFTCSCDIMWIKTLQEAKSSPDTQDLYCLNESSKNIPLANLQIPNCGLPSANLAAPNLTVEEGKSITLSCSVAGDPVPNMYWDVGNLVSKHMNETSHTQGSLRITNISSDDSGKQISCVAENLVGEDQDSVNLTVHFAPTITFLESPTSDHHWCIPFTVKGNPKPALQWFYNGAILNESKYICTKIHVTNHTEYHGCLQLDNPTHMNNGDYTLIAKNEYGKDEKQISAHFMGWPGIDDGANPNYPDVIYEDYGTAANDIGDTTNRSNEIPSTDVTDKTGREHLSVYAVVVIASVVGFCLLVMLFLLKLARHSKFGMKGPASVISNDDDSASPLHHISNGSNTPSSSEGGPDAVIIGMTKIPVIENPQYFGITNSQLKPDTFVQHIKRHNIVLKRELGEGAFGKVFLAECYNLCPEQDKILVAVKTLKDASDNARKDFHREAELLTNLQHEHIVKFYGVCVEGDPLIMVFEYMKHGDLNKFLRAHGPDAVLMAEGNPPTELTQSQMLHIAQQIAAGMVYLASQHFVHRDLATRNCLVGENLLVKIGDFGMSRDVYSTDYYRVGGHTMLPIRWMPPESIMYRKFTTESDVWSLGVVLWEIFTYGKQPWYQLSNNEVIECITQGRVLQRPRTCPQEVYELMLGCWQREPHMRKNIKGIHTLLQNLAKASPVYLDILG

Take `CCc1cc(O)c(F)cc1-c1ccc2c(-c3nc4c([nH]3)CN(C(=O)NCC(O)CCl)C4)n[nH]c2c1` (stereo not shown) [MDI-1288]: the Rhinitis behavioral scoring entry in assay [1] is “showed inhibitory effects on both male and female mouse rhinitis models”. Besides, at TRKB, inhibition was half-maximal at 1.04 nM (IC50).
Turning to `CCc1cc(O)c(F)cc1-c1ccc2c(-c3nc4c([nH]3)CN(C(=O)N3CC[C@H](O)C3)C4)n[nH]c2c1` [MDI-1228, (S)-(2-(6-(2-ethyl-5-fluoro-4-hydroxyphenyl)-1H-indazol-3-yl)-4,6-dihydropyrrolo[3,4-d]imidazol-5-(1H)-yl)(3-hydroxylpyrrolidin-1-yl)ketone], in assay [1], the Rhinitis behavioral scoring entry is reported as “did not significantly inhibit the allergic response in male mice”. In addition, at TRKB, the IC50 (in general, the concentration at which inhibition is half-maximal) amounted to 1.77 nM.

The values above are taken from patent US20250387388A1, “COMPOUND AS TRK INHIBITOR AND/OR RET INHIBITOR AND USE THEREOF” (Medinno Pharmaceutical Technology (Zhuhai) Co., Ltd., priority 2022, published 2025).
